This passage reports IC50 results from US11358952B2, “Substituted 4-aminoisoindoline-1,3-dione compounds, compositions thereof, and methods of treatment therewith” (Celgene Corporation, priority 2018, dated 2022).

pIC50: −log10 of the molar value.

The assay concerns SU-DHL-4 cell line. Nature of the assay: SU-DHL-4 cell proliferation assay (Cell Titer-Glo viability). The following applies: Homo sapiens; cell viability IC50 activity level, DLBCL cell line SU-DHL-4, 120 hours post-treatment; read-out: SU-DHL-4 Act. The format is cell-based. The protocol: SU-DHL-4 Cell Proliferation Assay.
The following is an example of an assay that can be used to determine the anti-proliferative activity of Isoindolinedione Compounds in a DLBCL cell line, for example, the SU-DHL-4 cell line (Deutsche Sammlung von Mikroorganismen and Zellkulturen GmbH [DSMZ]: catalogue number ACC-495) at 120 hours post-treatment. The seeding density for SU-DHL-4 can be optimized to ensure assay linearity in 1536-well plates.
Increasing concentrations of test compounds (0.5 nM to 10 μM) were spotted in a 20-point dilution fashion (unevenly spaced data points) via an acoustic dispenser (EDC ATS-100) into an empty 1536-well plate. The DMSO concentration was kept constant for a final assay concentration of 0.1% DMSO. Prior to testing, SU-DHL-4 cells were grown in RPMI-1640 (Roswell Park Memorial Institute—1640) medium with 10% FBS (fetal bovine serum: HyClone) and expanded in culture flasks to provide sufficient amounts of starting material. Cells were then diluted to 500 cells per well in a 5 μL volume, and added directly to the compound-spotted 1536-well plates. Cells were allowed to grow for 120 hours in 5% CO2 at 37° C. At the time when exposure of cells to compound began (to), initial viable cell number was assessed via Cell Titer-Glo® Luminescent Cell Viability Assay at a 1 vol:2 vol ratio according to manufacturer's instructions (Promega Corporation, Madison, Wis.) by quantifying the level of luminescence generated by adenosine-5′-triphosphate (ATP) present in viable cells. After 120 hours, cell viability of the treated cells was assessed via Cell Titer-Gb® and read for luminescence. All growth inhibition curves were processed and evaluated using Activity Base (IDBS, Alameda, Calif.). Cell viability IC50 values were calculated using a four parameter logistic model (sigmoidal dose-response model): y=(A+((B−A)/(1+((C/x)^D)))) wherein: A=YMin B=YMax C=EC50 D=Hill slope IC50=the concentration of the compound when Y=50% of DMSO control Y=cell viability measured as luminescence unit, and x=concentration of compound.
For orientation: In ATP-based viability assays light output follows the ATP content of the culture.
Regarding `Cc1cc(C#N)ccc1N1CCN(Cc2ccc(CNc3cccc4c3C(=O)N(C3CCC(=O)NC3=O)C4=O)cc2)CC1` (centres unmarked) [Cpd 8, 4-(4-(4-((2-(2,6-dioxopiperidin-3-yl)-1,3-dioxoisoindolin-4-ylamino)methyl)benzyl)piperazin-1-yl)-3-methylbenzonitrile], the pIC50 was 6.30 to 6.70. For `COC1CC2CCC(C1)N2Cc1ccc(CNc2cccc3c2C(=O)N(C2CCC(=O)NC2=O)C3=O)cc1` [Cpd 35, 2-(2,6-dioxopiperidin-3-yl)-4-(4-(((1R,3r,5S)-3-methoxy-8-azabicyclo[3.2.1]octan-8-yl)methyl)benzylamino)isoindoline-1,3-dione], the pIC50 is 6.00 to 6.12. For the compound `Cc1cc(CNc2cccc3c2C(=O)N(C2CCC(=O)NC2=O)C3=O)ccc1CN1CCN(C2CCC2)CC1` (centres unmarked) [Cpd 70, 4-(4-((4-cyclobutylpiperazin-1-yl)methyl)-3-methylbenzylamino)-2-(2,6-dioxopiperidin-3-yl)isoindoline-1,3-dione], the pIC50 is over 6.70. For the compound `O=C1CCC(N2C(=O)c3cccc(NCc4ccc(CN5CC6(CCOC6)C5)cc4F)c3C2=O)C(=O)N1` (centres unmarked) [Cpd 241, 4-(4-(6-oxa-2-azaspiro[3.4]octan-2-ylmethyl)-2-fluorobenzylamino)-2-(2,6-dioxopiperidin-3-yl)isoindoline-1,3-dione], the pIC50 is over 6.70. For `CC1(C)CCC2(CCN(Cc3ccc(CNc4cccc5c4C(=O)N(C4CCC(=O)NC4=O)C5=O)c(F)c3)CC2)O1` (centres unmarked) [Cpd 145, 4-(4-((2,2-dimethyl-1-oxa-8-azaspiro[4.5]decan-8-yl)methyl)-2-fluorobenzylamino)-2-(2,6-dioxopiperidin-3-yl)isoindoline-1,3-dione] the value was over 6.70; for `Cc1cc(CNc2cccc3c2C(=O)N(C2CCC(=O)NC2=O)C3=O)ccc1CN1CCC(C(C)(C)C)CC1` (centres unmarked) [Cpd 43, 4-(4-((4-tert-butylpiperidin-1-yl)methyl)-3-methylbenzylamino)-2-(2,6-dioxopiperidin-3-yl)isoindoline-1,3-dione], over 6.70. In the case of `NC(=O)c1cc(N2CCN(Cc3ccc(CNc4cccc5c4C(=O)N(C4CCC(=O)NC4=O)C5=O)cc3)CC2)ccn1` (centres unmarked) [Cpd 189, 4-(4-(4-((2-(2,6-dioxopiperidin-3-yl)-1,3-dioxoisoindolin-4-ylamino)methyl)benzyl)piperazin-1-yl)picolinamide], the pIC50 was 6.30 to 6.70. To `O=C1CCC(N2C(=O)c3cccc(NCc4ccc(CN5CC(N6CC7CCC(C6)O7)C5)cc4)c3C2=O)C(=O)N1` (centres unmarked) [Cpd 224, 4-(4-((3-(8-oxa-3-azabicyclo[3.2.1]octan-3-yl)azetidin-1-yl)methyl)benzylamino)-2-(2,6-dioxopiperidin-3-yl)isoindoline-1,3-dione] belongs over 6.70. For `O=C1CCC(N2C(=O)c3cccc(NCc4ccc(CN5CCC(O)(c6ccccn6)CC5)cc4F)c3C2=O)C(=O)N1` (centres unmarked) [Cpd 167, 2-(2,6-dioxopiperidin-3-yl)-4-(2-fluoro-4-((4-hydroxy-4-(pyridin-2-yl)piperidin-1-yl)methyl)benzylamino)isoindoline-1,3-dione] the value was over 6.70; for `O=C1CCC(N2C(=O)c3cccc(NCc4ccc(CN5CCN(c6ccc(F)cc6)CC5)cc4)c3C2=O)C(=O)N1` (centres unmarked) [Cpd 2, 2-(2,6-dioxopiperidin-3-yl)-4-(4-((4-(4-fluorophenyl)piperazin-1-yl)methyl)benzylamino)isoindoline-1,3-dione], 6.12 to 6.30.

Take `Cc1nnc(C2CCN(Cc3ccc(CNc4cccc5c4C(=O)N(C4CCC(=O)NC4=O)C5=O)c(F)c3)CC2)o1` (centres unmarked) [Cpd 178, 2-(2,6-dioxopiperidin-3-yl)-4-(2-fluoro-4-((4-(5-methyl-1,3,4-oxadiazol-2-yl)piperidin-1-yl)methyl)benzylamino)isoindoline-1,3-dione]: the pIC50 was 6.30 to 6.70. As for `O=C1CCC(N2C(=O)c3cccc(NCc4ccc(CN5CCN(c6noc7ccccc67)CC5)cc4F)c3C2=O)C(=O)N1` (centres unmarked) [Cpd 176, 4-(4-((4-(benzo[d]isoxazol-3-yl)piperazin-1-yl)methyl)-2-fluorobenzylamino)-2-(2,6-dioxopiperidin-3-yl)isoindoline-1,3-dione], the pIC50 is over 6.70.

Take `Cc1nsc(N2CCN(Cc3ccc(CNc4cccc5c4C(=O)N(C4CCC(=O)NC4=O)C5=O)cc3)CC2)n1` (centres unmarked) [Cpd 194, 2-(2,6-dioxopiperidin-3-yl)-4-(4-((4-(3-methyl-1,2,4-thiadiazol-5-yl)piperazin-1-yl)methyl)benzylamino)isoindoline-1,3-dione]: the pIC50 was over 6.70. Take `O=C1CCC(N2C(=O)c3cccc(NCc4ccc(CN5CCC(n6cccn6)CC5)cc4F)c3C2=O)C(=O)N1` (centres unmarked) [Cpd 107, 4-(4-((4-(1H-pyrazol-1-yl)piperidin-1-yl)methyl)-2-fluorobenzylamino)-2-(2,6-dioxopiperidin-3-yl)isoindoline-1,3-dione]: the pIC50 is over 6.70.

`Cc1cc(CNc2cccc3c2C(=O)N(C2CCC(=O)NC2=O)C3=O)ccc1CN1CC(N2CCOCC2)C1` (centres unmarked) [Cpd 201, 2-(2,6-dioxopiperidin-3-yl)-4-(3-methyl-4-((3-morpholinoazetidin-1-yl)methyl)benzylamino)isoindoline-1,3-dione]: the pIC50 is over 6.70.

`O=C1CCC(N2C(=O)c3cccc(NCc4ccc(CN5CC(N6C7CCC6COC7)C5)cc4)c3C2=O)C(=O)N1` (centres unmarked) [Cpd 248, 4-(4-((3-(3-oxa-8-azabicyclo[3.2.1]octan-8-yl)azetidin-1-yl)methyl)benzylamino)-2-(2,6-dioxopiperidin-3-yl)isoindoline-1,3-dione]: the pIC50 is over 6.70. With `Cc1cc(CNc2cccc3c2C(=O)N(C2CCC(=O)NC2=O)C3=O)ccc1CN1CCN(C2CC2)CC1` (centres unmarked) [Cpd 66, 4-(4-((4-cyclopropylpiperazin-1-yl)methyl)-3-methylbenzylamino)-2-(2,6-dioxopiperidin-3-yl)isoindoline-1,3-dione], the pIC50 was over 6.70. To `O=C1CCC(N2C(=O)c3cccc(NCc4ccc(CN5CCC(O)(C(F)(F)F)CC5)cc4)c3C2=O)C(=O)N1` (centres unmarked) [Cpd 130, 2-(2,6-dioxopiperidin-3-yl)-4-(4-((4-hydroxy-4-(trifluoromethyl)piperidin-1-yl)methyl)benzylamino)isoindoline-1,3-dione] belongs 6.00 to 6.12. For `NC(=O)c1ccc(N2CCN(Cc3ccc(CNc4cccc5c4C(=O)N([C@H]4CCC(=O)NC4=O)C5=O)cc3)CC2)nc1` [Cpd 203, (S)-6-(4-(4-((2-(2,6-dioxopiperidin-3-yl)-1,3-dioxoisoindolin-4-ylamino)methyl)benzyl)piperazin-1-yl)nicotinamide] the value was over 6.70. For the compound `O=C1CCC(N2C(=O)c3cccc(NCc4ccc(CN5CC6(CCCO6)C5)cc4F)c3C2=O)C(=O)N1` (centres unmarked) [Cpd 230, 4-(4-(5-oxa-2-azaspiro[3.4]octan-2-ylmethyl)-2-fluorobenzylamino)-2-(2,6-dioxopiperidin-3-yl)isoindoline-1,3-dione], the pIC50 is over 6.70. For `CC1(C)CN(c2ccc(C(N)=O)nc2)CCN1Cc1ccc(CNc2cccc3c2C(=O)N(C2CCC(=O)NC2=O)C3=O)cc1` (centres unmarked) [Cpd 86, 5-(4-(4-((2-(2,6-dioxopiperidin-3-yl)-1,3-dioxoisoindolin-4-ylamino)methyl)benzyl)-3,3-dimethylpiperazin-1-yl)picolinamide] the value was over 6.70; for `NC(=O)c1ccc(N2CCN(Cc3ccc(CNc4cccc5c4C(=O)N(C4CCC(=O)NC4=O)C5=O)cc3F)CC2)nc1` (centres unmarked) [Cpd 152, 6-(4-(4-((2-(2,6-dioxopiperidin-3-yl)-1,3-dioxoisoindolin-4-ylamino)methyl)-2-fluorobenzyl)piperazin-1-yl)nicotinamide], 6.12 to 6.30; for `Cc1cc(N2CCN(Cc3ccc(CNc4cccc5c4C(=O)N(C4CCC(=O)NC4=O)C5=O)cc3)CC2)no1` (centres unmarked) [Cpd 199, 2-(2,6-dioxopiperidin-3-yl)-4-(4-((4-(5-methylisoxazol-3-yl)piperazin-1-yl)methyl)benzylamino)isoindoline-1,3-dione], over 6.70. As to `NC(=O)c1ccc(N2CCN(Cc3ccc(CNc4cccc5c4C(=O)N([C@H]4CCC(=O)NC4=O)C5=O)cc3)CC2)cn1` [Cpd 58, (S)-5-(4-(4-((2-(2,6-dioxopiperidin-3-yl)-1,3-dioxoisoindolin-4-ylamino)methyl)benzyl)piperazin-1-yl)picolinamide], the pIC50 was over 6.70. For the compound `O=C1CCC(N2C(=O)c3cccc(NCc4ccc(CN5CC(c6cccc(F)c6)C5)cc4)c3C2=O)C(=O)N1` (centres unmarked) [Cpd 13, 2-(2,6-dioxopiperidin-3-yl)-4-(4-((3-(3-fluorophenyl)azetidin-1-yl)methyl)benzylamino)isoindoline-1,3-dione], the pIC50 is 6.12 to 6.30. For `Cc1cc(CNc2cccc3c2C(=O)N(C2CCC(=O)NC2=O)C3=O)ccc1CN1CCN(c2cccc(C(N)=O)n2)CC1` (centres unmarked) [Cpd 182, 6-(4-(4-((2-(2,6-dioxopiperidin-3-yl)-1,3-dioxoisoindolin-4-ylamino)methyl)-2-methylbenzyl)piperazin-1-yl)picolinamide] the value was over 6.70.
